Here are results for eleven compounds from ChEMBL document CHEMBL5442175, “EUbOPEN Chemogenomics Library - PDSP Secondary Binding” (2024).

The target of test [1] is T1, Alpha-1B adrenergic receptor (Homo sapiens, UniProt P35368).
T1 sequence (P35368 whole entry): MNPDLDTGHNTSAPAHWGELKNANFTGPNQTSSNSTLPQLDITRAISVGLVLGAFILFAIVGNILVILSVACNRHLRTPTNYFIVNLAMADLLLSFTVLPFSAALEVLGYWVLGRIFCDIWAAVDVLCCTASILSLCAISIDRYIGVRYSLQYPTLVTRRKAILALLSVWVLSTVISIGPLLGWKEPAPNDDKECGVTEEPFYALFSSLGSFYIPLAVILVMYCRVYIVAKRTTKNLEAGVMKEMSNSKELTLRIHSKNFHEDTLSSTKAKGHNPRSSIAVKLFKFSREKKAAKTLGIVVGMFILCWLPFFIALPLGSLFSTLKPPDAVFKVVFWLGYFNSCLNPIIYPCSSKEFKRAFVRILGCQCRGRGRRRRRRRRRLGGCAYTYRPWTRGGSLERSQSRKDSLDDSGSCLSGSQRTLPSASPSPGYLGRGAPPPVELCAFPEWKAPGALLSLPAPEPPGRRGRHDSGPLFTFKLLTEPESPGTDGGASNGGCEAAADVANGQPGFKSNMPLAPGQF
As to the kind of experiment: PDSP Secondary Binding target: ADRA1B - Compounds are tested at 10 uM concentration, plate are incubated at room temperature in the dark for 90 minutes. Reaction are stopped by vacuum filtration onto 0.3% polyethyleneimine soaked filter mats using Filtermate harvester. Scintillation cocktail is then melted onto microwave-dried filters on a hot plate and the radio activity is counted in Microbia counter.

The target of test [2] is Sodium-dependent noradrenaline transporter (Homo sapiens, UniProt P23975). The test can be described thus: PDSP Secondary Binding target: SLC6A2 - Compounds are tested at 10 uM concentration, plate are incubated at room temperature in the dark for 90 minutes. Reaction are stopped by vacuum filtration onto 0.3% polyethyleneimine soaked filter mats using Filtermate harvester. Scintillation cocktail is then melted onto microwave-dried filters on a hot plate and the radio activity is counted in Microbia counter.
Chain of Sodium-dependent noradrenaline transporter (P23975 whole entry): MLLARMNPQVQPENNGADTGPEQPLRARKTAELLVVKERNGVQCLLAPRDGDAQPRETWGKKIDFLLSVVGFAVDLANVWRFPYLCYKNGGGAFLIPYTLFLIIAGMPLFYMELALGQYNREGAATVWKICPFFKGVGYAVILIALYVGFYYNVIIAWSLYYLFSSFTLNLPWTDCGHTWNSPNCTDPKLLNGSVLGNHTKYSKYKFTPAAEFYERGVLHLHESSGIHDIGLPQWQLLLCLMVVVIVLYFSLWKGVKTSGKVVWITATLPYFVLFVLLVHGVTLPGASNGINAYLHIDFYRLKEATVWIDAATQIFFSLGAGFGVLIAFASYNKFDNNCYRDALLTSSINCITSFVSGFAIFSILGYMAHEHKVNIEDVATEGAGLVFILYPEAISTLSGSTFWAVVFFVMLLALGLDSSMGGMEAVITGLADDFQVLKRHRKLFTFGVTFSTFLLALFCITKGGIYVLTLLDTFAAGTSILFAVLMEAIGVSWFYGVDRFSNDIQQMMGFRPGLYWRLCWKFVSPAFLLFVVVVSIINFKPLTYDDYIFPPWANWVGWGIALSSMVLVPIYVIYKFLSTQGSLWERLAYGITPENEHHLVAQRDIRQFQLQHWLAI

Test [3] deals with Sodium-dependent dopamine transporter (Homo sapiens, UniProt Q01959). The test can be described thus: PDSP Secondary Binding target: SLC6A3 - Compounds are tested at 10 uM concentration, plate are incubated at room temperature in the dark for 90 minutes. Reaction are stopped by vacuum filtration onto 0.3% polyethyleneimine soaked filter mats using Filtermate harvester. Scintillation cocktail is then melted onto microwave-dried filters on a hot plate and the radio activity is counted in Microbia counter.
Chain of Sodium-dependent dopamine transporter (Q01959 whole entry): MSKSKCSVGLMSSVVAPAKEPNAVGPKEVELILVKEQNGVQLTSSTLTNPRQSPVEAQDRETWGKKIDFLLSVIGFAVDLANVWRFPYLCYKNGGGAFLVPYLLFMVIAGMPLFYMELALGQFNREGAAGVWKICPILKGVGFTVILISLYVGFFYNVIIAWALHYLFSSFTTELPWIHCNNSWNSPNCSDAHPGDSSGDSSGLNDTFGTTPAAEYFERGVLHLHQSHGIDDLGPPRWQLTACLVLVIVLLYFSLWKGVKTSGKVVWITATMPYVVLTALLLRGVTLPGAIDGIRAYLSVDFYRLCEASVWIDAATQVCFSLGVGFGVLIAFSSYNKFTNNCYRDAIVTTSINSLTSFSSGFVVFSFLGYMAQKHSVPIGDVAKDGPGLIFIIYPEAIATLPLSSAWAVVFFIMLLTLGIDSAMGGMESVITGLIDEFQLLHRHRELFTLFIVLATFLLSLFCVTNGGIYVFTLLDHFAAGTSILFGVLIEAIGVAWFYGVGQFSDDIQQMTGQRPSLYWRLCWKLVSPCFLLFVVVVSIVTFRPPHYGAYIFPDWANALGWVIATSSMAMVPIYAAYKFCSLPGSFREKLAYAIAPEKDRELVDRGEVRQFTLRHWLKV

Test [4] deals with T2, 5-hydroxytryptamine receptor 2C (Homo sapiens, UniProt P28335).
T2 sequence (P28335 whole entry): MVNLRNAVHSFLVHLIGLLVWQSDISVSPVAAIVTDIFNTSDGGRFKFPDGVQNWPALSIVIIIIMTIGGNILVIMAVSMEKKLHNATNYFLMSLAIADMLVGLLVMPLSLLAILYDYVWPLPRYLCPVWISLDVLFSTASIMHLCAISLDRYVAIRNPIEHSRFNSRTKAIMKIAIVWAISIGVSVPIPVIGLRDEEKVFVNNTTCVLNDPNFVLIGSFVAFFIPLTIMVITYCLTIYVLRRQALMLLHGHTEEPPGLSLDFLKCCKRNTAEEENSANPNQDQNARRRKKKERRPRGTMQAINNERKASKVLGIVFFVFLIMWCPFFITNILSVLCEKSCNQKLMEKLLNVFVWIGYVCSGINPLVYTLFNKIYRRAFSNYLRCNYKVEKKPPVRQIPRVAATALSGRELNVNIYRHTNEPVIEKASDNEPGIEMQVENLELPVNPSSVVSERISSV
As to the kind of experiment: PDSP Secondary Binding target: HTR2C - Compounds are tested at 10 uM concentration, plate are incubated at room temperature in the dark for 90 minutes. Reaction are stopped by vacuum filtration onto 0.3% polyethyleneimine soaked filter mats using Filtermate harvester. Scintillation cocktail is then melted onto microwave-dried filters on a hot plate and the radio activity is counted in Microbia counter.

For test [5], the target named is T3, Alpha-2A adrenergic receptor (Homo sapiens, UniProt P08913).
T3 sequence (P08913 whole entry): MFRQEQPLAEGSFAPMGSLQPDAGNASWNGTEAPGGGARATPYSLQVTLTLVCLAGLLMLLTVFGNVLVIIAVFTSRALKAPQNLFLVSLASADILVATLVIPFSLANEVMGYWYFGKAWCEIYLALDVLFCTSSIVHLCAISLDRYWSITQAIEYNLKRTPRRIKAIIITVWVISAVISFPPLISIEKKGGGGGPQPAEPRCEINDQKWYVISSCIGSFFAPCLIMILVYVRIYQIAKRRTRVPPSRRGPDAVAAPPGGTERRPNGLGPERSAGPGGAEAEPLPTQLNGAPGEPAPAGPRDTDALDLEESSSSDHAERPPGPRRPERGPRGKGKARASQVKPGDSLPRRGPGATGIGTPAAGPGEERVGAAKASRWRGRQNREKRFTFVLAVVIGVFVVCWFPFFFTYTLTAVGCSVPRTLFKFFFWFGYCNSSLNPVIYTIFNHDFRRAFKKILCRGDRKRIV
The test can be described thus: PDSP Secondary Binding target: ADRA2A - Compounds are tested at 10 uM concentration, plate are incubated at room temperature in the dark for 90 minutes. Reaction are stopped by vacuum filtration onto 0.3% polyethyleneimine soaked filter mats using Filtermate harvester. Scintillation cocktail is then melted onto microwave-dried filters on a hot plate and the radio activity is counted in Microbia counter.

Test [6] deals with 5-hydroxytryptamine receptor 2A (Homo sapiens, UniProt P28223). As to the kind of experiment: PDSP Secondary Binding target: HTR2A - Compounds are tested at 10 uM concentration, plate are incubated at room temperature in the dark for 90 minutes. Reaction are stopped by vacuum filtration onto 0.3% polyethyleneimine soaked filter mats using Filtermate harvester. Scintillation cocktail is then melted onto microwave-dried filters on a hot plate and the radio activity is counted in Microbia counter.
Chain of 5-hydroxytryptamine receptor 2A (P28223 whole entry): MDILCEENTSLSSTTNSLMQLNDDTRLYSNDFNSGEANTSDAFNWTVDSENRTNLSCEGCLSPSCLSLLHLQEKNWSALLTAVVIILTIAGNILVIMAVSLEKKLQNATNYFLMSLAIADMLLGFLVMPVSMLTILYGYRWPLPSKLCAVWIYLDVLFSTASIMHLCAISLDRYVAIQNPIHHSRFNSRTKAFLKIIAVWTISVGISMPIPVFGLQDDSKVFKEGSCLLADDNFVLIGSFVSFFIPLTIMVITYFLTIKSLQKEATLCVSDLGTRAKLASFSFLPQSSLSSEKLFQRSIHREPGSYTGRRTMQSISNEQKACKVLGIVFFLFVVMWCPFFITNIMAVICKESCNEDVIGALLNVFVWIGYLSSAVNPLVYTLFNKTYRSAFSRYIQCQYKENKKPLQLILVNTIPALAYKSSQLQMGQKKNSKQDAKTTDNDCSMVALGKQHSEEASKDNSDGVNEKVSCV

The target in test [7] is 5-hydroxytryptamine receptor 7 (Homo sapiens, UniProt P34969). The test can be described thus: PDSP Secondary Binding target: HTR7 - Compounds are tested at 10 uM concentration, plate are incubated at room temperature in the dark for 90 minutes. Reaction are stopped by vacuum filtration onto 0.3% polyethyleneimine soaked filter mats using Filtermate harvester. Scintillation cocktail is then melted onto microwave-dried filters on a hot plate and the radio activity is counted in Microbia counter.
Chain of 5-hydroxytryptamine receptor 7 (P34969 whole entry): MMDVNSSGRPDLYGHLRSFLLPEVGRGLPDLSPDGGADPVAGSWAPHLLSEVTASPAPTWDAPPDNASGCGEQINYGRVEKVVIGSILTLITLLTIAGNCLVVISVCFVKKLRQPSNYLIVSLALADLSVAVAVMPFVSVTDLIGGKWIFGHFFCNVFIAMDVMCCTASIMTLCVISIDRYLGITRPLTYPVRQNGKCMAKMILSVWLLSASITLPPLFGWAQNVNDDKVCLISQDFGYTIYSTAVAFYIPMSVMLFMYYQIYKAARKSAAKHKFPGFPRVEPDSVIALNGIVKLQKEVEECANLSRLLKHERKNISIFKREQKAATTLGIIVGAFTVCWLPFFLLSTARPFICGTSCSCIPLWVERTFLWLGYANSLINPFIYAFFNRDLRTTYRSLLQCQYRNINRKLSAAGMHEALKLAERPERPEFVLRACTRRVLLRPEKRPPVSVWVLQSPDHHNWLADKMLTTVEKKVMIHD

Test [8] concerns the target 5-hydroxytryptamine receptor 5A (Homo sapiens, UniProt P47898). As to the kind of experiment: PDSP Secondary Binding target: HTR5A - Compounds are tested at 10 uM concentration, plate are incubated at room temperature in the dark for 90 minutes. Reaction are stopped by vacuum filtration onto 0.3% polyethyleneimine soaked filter mats using Filtermate harvester. Scintillation cocktail is then melted onto microwave-dried filters on a hot plate and the radio activity is counted in Microbia counter.

In test [9] the target is 5-hydroxytryptamine receptor 1D (Homo sapiens, UniProt P28221). The test can be described thus: PDSP Secondary Binding target: HTR1D - Compounds are tested at 10 uM concentration, plate are incubated at room temperature in the dark for 90 minutes. Reaction are stopped by vacuum filtration onto 0.3% polyethyleneimine soaked filter mats using Filtermate harvester. Scintillation cocktail is then melted onto microwave-dried filters on a hot plate and the radio activity is counted in Microbia counter.
Chain of 5-hydroxytryptamine receptor 1D (P28221 whole entry): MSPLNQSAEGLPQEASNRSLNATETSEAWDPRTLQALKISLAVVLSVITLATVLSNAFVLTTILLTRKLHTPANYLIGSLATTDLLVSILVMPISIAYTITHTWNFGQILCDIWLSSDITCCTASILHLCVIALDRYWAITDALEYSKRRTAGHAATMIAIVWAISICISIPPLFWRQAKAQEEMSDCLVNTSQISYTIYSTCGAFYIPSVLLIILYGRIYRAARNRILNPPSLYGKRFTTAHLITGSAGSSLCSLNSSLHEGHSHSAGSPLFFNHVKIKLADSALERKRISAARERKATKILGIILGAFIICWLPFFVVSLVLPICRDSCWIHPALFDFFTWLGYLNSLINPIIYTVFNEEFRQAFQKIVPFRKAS

The term Ki denotes the dissociation constant of the complex between target and ligand, obtained from inhibition or displacement.

Where a name gives a salt, the structure may show the parent alone.

Chain of 5-hydroxytryptamine receptor 5A (P47898 whole entry): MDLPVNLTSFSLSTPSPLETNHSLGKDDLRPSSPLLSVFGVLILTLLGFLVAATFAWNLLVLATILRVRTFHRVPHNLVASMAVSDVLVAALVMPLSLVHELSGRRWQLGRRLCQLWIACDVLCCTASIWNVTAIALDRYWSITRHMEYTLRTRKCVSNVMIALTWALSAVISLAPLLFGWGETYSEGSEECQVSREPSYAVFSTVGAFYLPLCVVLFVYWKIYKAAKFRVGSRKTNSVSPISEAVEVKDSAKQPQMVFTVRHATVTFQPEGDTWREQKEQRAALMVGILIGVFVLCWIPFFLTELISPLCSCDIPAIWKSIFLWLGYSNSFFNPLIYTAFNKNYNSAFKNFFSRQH

In the case of `S=C(NCCCc1c[nH]cn1)NCCCN(Cc1ccc(Cl)c(Cl)c1)c1ccc(Br)cn1`, the inhibition constant (Ki) in test [1] was 2030 nM; in [2], 618 nM; in test [3] it was 295 nM; in test [4] it was 251 nM; in test [5] it was 178 nM; in [6], 202 nM. The Ki in test [7] was found to be 1540 nM; in [8], 1550 nM.
For `COc1ccc(NS(=O)(=O)c2sc3ccc(Cl)cc3c2C)cc1N1CCNCC1`, the Ki in test [1] was 2660 nM; in test [2], 5620 nM; in test [4], 1280 nM; in [5], 590 nM; in test [9], 1080 nM; in test [8] it was 1910 nM.
With `Cc1nc2sccn2c(=O)c1CCN1CCC(=C(c2ccc(F)cc2)c2ccc(F)cc2)CC1` [RITANSERIN], the inhibitory constant (Ki) turned out to be 598 nM in [1]; 685 nM in test [2]; 318 nM in test [3]; 4.09 nM in [4]; 367 nM in test [5]; 47.3 nM in test [7]. In test [8], the Ki was found to be 102 nM.
Take `COc1cc(-n2cnc3cc(-c4ccc(Cl)cc4)sc3c2=O)ccc1OCCN1CCCC1`: the Ki was 893 nM in test [4], 2940 nM in [5], 3560 nM in [9] and 557 nM in test [8].
For `CCCCCNC(=N)N/N=C/c1c[nH]c2ccc(OC)cc12` [TEGASEROD MALEATE], the inhibition constant (Ki) in test [1] was 2610 nM; in [4] it was 142 nM; in test [6], 431 nM; in test [9] it was 50.1 nM; in test [8] it was 201 nM.
As for `CN(C)C(=O)N[C@H]1CC[C@H](CCN2CCN(c3cccc(Cl)c3Cl)CC2)CC1` [CARIPRAZINE HYDROCHLORIDE], the Ki in test [1] was determined as 1970 nM; in test [4] it was 1250 nM; in test [5] it was 1740 nM; in test [7], 76.1 nM; in test [9] it was 76.8 nM; in test [8], 3290 nM.
Turning to `COc1ccc(NC(=O)c2ccc(-c3ccc(-c4noc(C)n4)cc3C)cc2)cc1OCCN(C)C`, the inhibitory constant (Ki) in test [2] turned out to be 664 nM; in test [3], 984 nM; in test [4], 264 nM; in test [5], 440 nM; in [6] it was 35.7 nM; in test [7] it was 1100 nM. The results for the inhibition constant (Ki) in test [9] and in [8] were 15 nM and 1160 nM, respectively.
In the case of `C[C@@H](NCCCc1cccc(C(F)(F)F)c1)c1cccc2ccccc12` [CINACALCET HYDROCHLORIDE], the inhibitory constant (Ki) in [1] amounted to 2890 nM; in test [2], 1450 nM; in test [4], 658 nM; in test [6], 842 nM; in test [7], 571 nM; in [9], 1700 nM. In test [8], this compound showed an inhibitory constant (Ki) of 972 nM.
Consider `CCc1ccc(OCc2ccccc2C(=O)Nc2ccc3nc(C)cc(N)c3c2)cc1`, for which the Ki worked out at 3540 nM in [1]; 328 nM in test [4]; 548 nM in test [6]; 2780 nM in test [9]; 2450 nM in test [8].
With `CN1C[C@H](C(=O)N[C@]2(C)O[C@@]3(O)[C@@H]4CCCN4C(=O)[C@H](Cc4ccccc4)N3C2=O)C[C@@H]2c3cccc4[nH]cc(c34)C[C@H]21` [DIHYDROERGOTAMINE MESYLATE], the inhibitory constant (Ki) in [1] was determined as 119 nM; in [4], 214 nM; in test [7], 60.2 nM; in test [8] it was 31.3 nM.
`O=c1ccc2ccc(OCCCCN3CCN(c4cccc5sccc45)CC3)cc2[nH]1` [BREXPIPRAZOLE]: the Ki in test [1] was found to be 57.9 nM; in [2] it was 689 nM; in test [3], 364 nM; in [4] it was 60.5 nM; in test [5] it was 212 nM; in [6], 18.3 nM. The Ki in [7] worked out at 30.4 nM; in [9] it was 24 nM; in [8], 178 nM.
